Columns and labels:
[1] = Metabolic stability in dog liver S9 fraction; format: in vitro ADME
Procedure: (§1) The metabolic stability of SP-8356 was investigated using rat, dog and human liver S9 fractions fortified with cofactors for major drug metabolism. The final reaction mixture contained 1 mg/mL rat, dog or human liver S9 fraction, 1 mM cofactors (NADPH, UDPGA, PAPS, SAM and GSH), 2 mM MgCl2, 25 µg/mL alamethicin and 1 µM SP-8356 in final volume of 200 µL. The metabolic reactions were initiated by adding 10 mM cofactor solution to reaction mixtures preincubated for 5 min at 37 °C. The reactions were terminated at (0, 5, 15, 30 and 60) min by the addition of 200 µL ice-cold acetonitrile containing HSDH (1 µg/mL). The subsequent sample preparation and analytical methods were the same as those described in Section 4.5.
(§2) The degradation t1/2 of SP-8356 was calculated using the following Equation:(1) t1/2=0.693/k, where, k was the first-order rate constant calculated by one phase decay nonlinear regression using GraphPad Prism™ 7 (GraphPad Software, La Jolla, CA, USA). CLint was calculated using the following Equation:(2) CLint=k/fu,S9· mL incubation/mg liver S9· mg S9/g liver·g liver/kg body wt.
(§3) The scaling factors were (136, 120.7 and 120.7) mg S9 protein/g liver and (40, 32 and 26) g liver/kg body weight for rats, dogs and humans, respectively. For simplicity, the fraction unbound in S9 incubation (fu, S9) was assumed to be one. CLH was predicted using the hepatic well-stirred model, as follows:(3) CLH=QH·fu·CLint/QH+fu·CLint, where, QH was the hepatic blood flow of (55, 30 and 20) mL/min/kg for rats, dogs and humans, respectively. The fraction unbound (fu) was assumed to be one. EH was calculated using the following Equation:(4) EH=CLH/QH.

[2] = Metabolic stability in human liver S9 fraction; format: in vitro ADME; conditions: for t1/2 / half-life at 1 µM: 1 μM
Procedure: as §1, §2, §3

[3] = test system: mouse xenograft model of triple-negative breast cancer; set-up: method as in PMID 31036845; conditions: in mice ref 10; cited from earlier work
[4] = Metabolic stability in rat liver S9 fraction; format: in vitro ADME
Procedure: as §1, §2, §3

[5] = Pharmacokinetic studies in dogs (single i.v. and p.o. dose); format: in vivo; conditions: male, Beagle, dog, plasma, iv, 50 mg/kg
Procedure: Separation was performed on a Phenomenex Kinetex C18 column (2.1 mm × 50 mm, 2.6 µm) with 0.1 vol.% formic acid in water (A) and 0.1 vol.% formic acid in acetonitrile (B) as the mobile phase. The samples were analyzed in a linear gradient elution at a flow rate of 0.45 mL/min at 40 °C: starting with 5 vol.% B for 2 min, ramping to 95 vol.% B in 1 min, maintaining for 3 min and then returning to the initial condition. The injection volume was 5 µL. Ion source parameters were optimized as follows: capillary voltage, 3500 V; drying gas, 12 L/min and 345 °C; nebulizer gas, 35 psi; sheath gas, 11 L/min and 400 °C. Mass spectra were acquired in negative multiple reaction monitoring (MRM) mode at m/z (299 > 283) (F, 100 V; CE, 25 eV) and (253 > 143) (F, 100 V; CE, 30 eV) for SP-8356 and HSDH, respectively. The data were analyzed using Agilent MassHunter Quantitative Analysis software (version B.05.00). The retention times of SP-8356 and HSDH were (4.10 and 4.17) min, respectively. The linear calibration range of SP-8356 was (31.25–4000) ng/mL (r^2 > 0.99). The precision and accuracy of the assay were evaluated using quality control samples prepared in triplicate at (30, 300 and 3000) ng/mL as described in previous report. Both the accuracy and precision of this analytical method were within the acceptable ranges. Pharmacokinetic parameters were calculated by noncompartmental analysis using PKSolver.
Animal studies were conducted at KNOTUS Co., Ltd. (IACUC Approval No.: KNOTUS IACUC 18-KE-363; Approval date: 24 October 2018). SP-8356 dissolved in DMSO/ethanol/Solutol HS 15/deionized water (5/3/40/52 vol.%) was dosed i.v. or p.o. at 50 mg/kg (n = 6/dose group) to male Beagle dogs (11 months old; (11.6–12.4) kg; OrientBio Inc., Gyeonggi, Republic of Korea). Blood samples were collected at selected time points for 24 h post-dosing through jugular vein cannula into EDTA-treated tubes containing AA (final concentration: 0.4 w/v%). The blood samples were then centrifuged at 3000 rpm at 4 °C for 20 min. The separated plasma samples were kept frozen at −80 °C, until analysis. Sample and data analysis methods were the same as those described in Section 4.2.

[6] = Pharmacokinetic studies in rats (single i.v. and p.o. dose); format: in vivo; conditions: plasma

With `COc1cc(/C=C/C2=CC(=O)[C@H]3C[C@@H]2C3(C)C)cc(O)c1O` [SP-8356, (1S,5R)-4-((E)-3,4-dihydroxy-5-methoxystryryl)-6,6-dimethylbicylco[3.1.1]hept-3-en-2-one] the half-life at 1 µM ([1]; Beagle, dog, liver S9 fraction, dog liver S9, −Cofactors, 1 μM) was < 30 min, the CLint scaled at 1 µM ([1]; Beagle, liver S9 fraction, dog liver S9, +Cofactors) was 2430 mL/min/kg and the t1/2 ([1]; dog liver S9, −Cofactors, 1 μM) was 20.7 min. For the same compound, the CLH ([1]; dog, +Cofactors, predicted by well-stirred model) was 29.6 mL/min/kg, the t1/2 ([2]; human liver S9, +Cofactors (NADPH, UDPGA, PAPS, SAM, GSH)) was 2.1 min and the t1/2 ([2]; human liver S9, −Cofactors) was 24.1 min. The CLH ([2]; human, +Cofactors, predicted by well-stirred model) was 19.6 mL/min/kg, the half-life at 1 µM ([2]; human, liver S9 fraction, human liver S9, +Cofactors (NADPH, UDPGA, PAPS, SAM, GSH)) was < 3 min and the half-life at 1 µM ([2]; human, liver S9 fraction, human liver S9, −Cofactors) was < 30 min. The CLint scaled at 1 µM ([2]; liver S9 fraction, human liver S9, +Cofactors) was 1040 mL/min/kg, the anti-breast cancer activity [3] was “potent anti-breast cancer effect” and the CLint scaled at 1 µM ([4]; Sprague-Dawley, liver S9 fraction, rat liver S9, +Cofactors) was 2900 mL/min/kg. The EH ([4]; rat, +Cofactors, EH = CLH/QH) was 0.98, the CLH ([4]; rat, +Cofactors, predicted by well-stirred model) was 54.0 mL/min/kg and the Vd ([5]; read-out: Vss) was 1.3 ± 0.3 L/kg. For the same compound, the Vd ([5]; read-out: Vz) was 1.8 ± 0.3 L/kg, the AUC(0-inf) [5] was 12400 ng·h/mL and the AUC(0-t) [5] was 12400 ng·h/mL. For the same compound, the clearance [5] was 66.7 mL/min/kg, the Vd ([6]; male, SD (rat), Beagle (dog), iv, range over rats and dogs, read-out: mean volumes of distribution during terminal phase (Vz) and at steady state (Vss)) was 1.3 to 1.9 L/kg and the AUC(0-inf) ([6]; male, SD, iv, rat, 20 mg/kg) was 1030 ± 314 ng·h/mL. The AUC(0-t) ([6]; male, SD, iv, rat, 20 mg/kg) was 981 ± 314 ng·h/mL, the clearance ([6]; male, SD, iv, rat, 20 mg/kg) was 350 mL/min/kg and the half-life ([6]; male, SD, rat, iv, 20 mg/kg) was < 6 min. For the same compound, the Vd ([6]; male, SD, rat, iv, 20 mg/kg, read-out: Vss) was 1.6 ± 0.5 L/kg, the Vd ([6]; male, SD, rat, iv, 20 mg/kg, read-out: Vz) was 1.9 ± 0.6 L/kg and the t1/2 ([6]; rat, 20 mg/kg) was 4.2 ± 1.2 min.

— PMC7221793, “Metabolism and Pharmacokinetics of SP-8356, a Novel (1S)-(−)-Verbenone Derivative, in Rats and Dogs and Its Implications in Humans” (Molecules, 2020)
